Laboratory results: ChEMBL document CHEMBL1133958, “Derivatives of (2R,3R,4S)-2-aminomethylpyrrolidine-3,4-diol are selective alpha-mannosidase inhibitors” (Bioorg Med Chem Lett, 2001)
Active and inactive are the calls of the source. The calls are words filed in the database; no cut-off is given here.

How the values were obtained:
[1] = target: T1, Glucoamylase 1 (Rhizopus oryzae) (UniProt P07683); experiment: Percentage inhibition of Alpha-glucosidase from Rhizopus mold (amyloglucosidase) at 1 mM concentration; details: Rhizopus arrhizus
T1 sequence (whole entry): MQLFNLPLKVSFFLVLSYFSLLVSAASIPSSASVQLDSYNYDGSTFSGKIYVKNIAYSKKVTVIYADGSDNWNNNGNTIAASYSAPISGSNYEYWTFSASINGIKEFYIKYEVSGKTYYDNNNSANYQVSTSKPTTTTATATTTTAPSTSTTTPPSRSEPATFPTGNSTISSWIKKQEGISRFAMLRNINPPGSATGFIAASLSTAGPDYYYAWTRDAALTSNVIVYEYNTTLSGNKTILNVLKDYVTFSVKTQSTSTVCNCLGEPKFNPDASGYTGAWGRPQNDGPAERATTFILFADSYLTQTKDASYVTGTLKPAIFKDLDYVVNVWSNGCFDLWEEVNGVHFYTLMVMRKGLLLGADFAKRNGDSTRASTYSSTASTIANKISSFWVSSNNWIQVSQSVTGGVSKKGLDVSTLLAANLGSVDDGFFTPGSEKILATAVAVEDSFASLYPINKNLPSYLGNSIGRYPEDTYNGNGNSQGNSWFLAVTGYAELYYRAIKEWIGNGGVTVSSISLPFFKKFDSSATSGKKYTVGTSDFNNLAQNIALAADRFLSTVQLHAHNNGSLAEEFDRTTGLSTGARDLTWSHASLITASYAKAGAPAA

[2] = target: T2, Alpha-glucosidase (Oryza sativa Japonica Group) (UniProt Q9LGC6); experiment: Percentage inhibition of Alpha-glucosidase from Rice (maltase) at 1 mM; […]
T2 sequence (whole entry): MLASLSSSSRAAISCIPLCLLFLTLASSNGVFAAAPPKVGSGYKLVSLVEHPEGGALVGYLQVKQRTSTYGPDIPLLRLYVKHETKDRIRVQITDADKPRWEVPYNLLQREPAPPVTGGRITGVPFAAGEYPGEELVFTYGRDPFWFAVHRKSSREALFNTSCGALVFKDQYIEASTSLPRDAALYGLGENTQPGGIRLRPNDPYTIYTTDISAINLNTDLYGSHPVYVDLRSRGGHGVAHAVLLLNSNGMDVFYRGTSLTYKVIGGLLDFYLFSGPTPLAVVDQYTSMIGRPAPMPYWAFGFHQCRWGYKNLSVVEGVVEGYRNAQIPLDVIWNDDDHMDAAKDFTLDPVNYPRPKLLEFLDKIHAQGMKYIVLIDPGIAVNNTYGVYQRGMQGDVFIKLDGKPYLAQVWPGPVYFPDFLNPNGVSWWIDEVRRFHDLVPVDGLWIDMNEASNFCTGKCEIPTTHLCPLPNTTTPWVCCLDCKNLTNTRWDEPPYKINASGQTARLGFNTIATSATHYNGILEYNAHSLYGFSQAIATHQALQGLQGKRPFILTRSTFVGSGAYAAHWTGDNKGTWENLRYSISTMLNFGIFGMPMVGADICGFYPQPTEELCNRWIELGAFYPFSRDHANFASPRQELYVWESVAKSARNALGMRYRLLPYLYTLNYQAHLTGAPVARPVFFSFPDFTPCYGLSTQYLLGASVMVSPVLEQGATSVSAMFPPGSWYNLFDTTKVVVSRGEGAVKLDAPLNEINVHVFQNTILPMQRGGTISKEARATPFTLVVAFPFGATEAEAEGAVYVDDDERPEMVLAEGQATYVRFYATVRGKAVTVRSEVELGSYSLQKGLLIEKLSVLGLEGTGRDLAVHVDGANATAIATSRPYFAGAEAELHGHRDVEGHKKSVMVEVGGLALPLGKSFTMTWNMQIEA

Saccharomyces cerevisiae [3] = experiment: Percentage inhibition of Alpha-glucosidase from Yeast (maltase) at 1 mM; […]
Saccharomyces cerevisiae [4] = experiment: Percentage inhibition of Alpha-glucosidase from Baker yeast (isomaltase) at 1 mM
[5] = target: Beta-galactosidase (Escherichia coli K-12) (UniProt P00722); experiment: Percentage inhibition of Beta-galactosidase from Escherichia coli at 1 mM concentration
Chain of Beta-galactosidase (Escherichia coli K-12) (P00722 whole entry): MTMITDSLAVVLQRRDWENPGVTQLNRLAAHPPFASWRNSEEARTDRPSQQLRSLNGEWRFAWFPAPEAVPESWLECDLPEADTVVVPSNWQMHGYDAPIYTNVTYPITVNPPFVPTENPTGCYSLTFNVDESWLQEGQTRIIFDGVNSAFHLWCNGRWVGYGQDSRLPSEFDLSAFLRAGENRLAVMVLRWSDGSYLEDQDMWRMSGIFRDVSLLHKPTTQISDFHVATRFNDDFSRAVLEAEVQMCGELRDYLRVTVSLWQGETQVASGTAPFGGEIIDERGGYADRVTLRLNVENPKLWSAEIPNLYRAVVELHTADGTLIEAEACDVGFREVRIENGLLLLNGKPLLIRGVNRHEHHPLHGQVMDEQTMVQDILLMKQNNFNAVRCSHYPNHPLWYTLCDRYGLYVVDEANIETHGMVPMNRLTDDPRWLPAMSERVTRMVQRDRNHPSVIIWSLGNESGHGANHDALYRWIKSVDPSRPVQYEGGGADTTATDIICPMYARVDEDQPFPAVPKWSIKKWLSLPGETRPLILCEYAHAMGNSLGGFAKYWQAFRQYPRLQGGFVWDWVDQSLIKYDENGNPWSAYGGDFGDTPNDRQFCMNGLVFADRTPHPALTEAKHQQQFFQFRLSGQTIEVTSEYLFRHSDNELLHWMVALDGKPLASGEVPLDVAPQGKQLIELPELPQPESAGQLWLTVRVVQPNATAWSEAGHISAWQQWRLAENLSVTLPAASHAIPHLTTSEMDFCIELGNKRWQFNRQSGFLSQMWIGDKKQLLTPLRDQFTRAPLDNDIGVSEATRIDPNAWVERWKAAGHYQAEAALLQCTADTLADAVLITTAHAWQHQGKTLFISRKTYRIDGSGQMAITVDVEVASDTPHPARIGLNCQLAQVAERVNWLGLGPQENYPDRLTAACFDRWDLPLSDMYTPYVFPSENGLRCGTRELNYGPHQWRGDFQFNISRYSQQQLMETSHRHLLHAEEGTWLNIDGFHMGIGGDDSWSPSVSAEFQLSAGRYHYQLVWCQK

[6] = target: Beta-glucosidase A (Caldicellulosiruptor saccharolyticus) (UniProt P10482); experiment: Percentage inhibition of Beta-Glucosidase from Caldocellum saccharol. at 1 mM; No inhibition
Chain of Beta-glucosidase A (Caldicellulosiruptor saccharolyticus) (P10482 whole entry): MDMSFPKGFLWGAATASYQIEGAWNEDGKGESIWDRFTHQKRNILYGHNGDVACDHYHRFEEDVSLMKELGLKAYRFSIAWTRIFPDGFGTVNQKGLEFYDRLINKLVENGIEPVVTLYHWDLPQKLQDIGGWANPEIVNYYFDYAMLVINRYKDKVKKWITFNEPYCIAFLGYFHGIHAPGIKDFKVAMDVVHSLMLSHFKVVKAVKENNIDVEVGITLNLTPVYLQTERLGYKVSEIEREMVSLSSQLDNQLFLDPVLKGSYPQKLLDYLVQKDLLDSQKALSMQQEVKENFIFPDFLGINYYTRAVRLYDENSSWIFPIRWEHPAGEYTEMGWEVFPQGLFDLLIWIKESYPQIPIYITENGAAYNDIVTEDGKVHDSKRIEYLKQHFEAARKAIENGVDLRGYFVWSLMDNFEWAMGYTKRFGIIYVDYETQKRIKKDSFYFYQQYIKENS

[7] = target: T3, Beta-galactosidase (Aspergillus niger) (UniProt P29853); experiment: Percentage inhibition of Beta-galactosidase from Aspergillus niger at 1 mM concentration
T3 sequence (whole entry): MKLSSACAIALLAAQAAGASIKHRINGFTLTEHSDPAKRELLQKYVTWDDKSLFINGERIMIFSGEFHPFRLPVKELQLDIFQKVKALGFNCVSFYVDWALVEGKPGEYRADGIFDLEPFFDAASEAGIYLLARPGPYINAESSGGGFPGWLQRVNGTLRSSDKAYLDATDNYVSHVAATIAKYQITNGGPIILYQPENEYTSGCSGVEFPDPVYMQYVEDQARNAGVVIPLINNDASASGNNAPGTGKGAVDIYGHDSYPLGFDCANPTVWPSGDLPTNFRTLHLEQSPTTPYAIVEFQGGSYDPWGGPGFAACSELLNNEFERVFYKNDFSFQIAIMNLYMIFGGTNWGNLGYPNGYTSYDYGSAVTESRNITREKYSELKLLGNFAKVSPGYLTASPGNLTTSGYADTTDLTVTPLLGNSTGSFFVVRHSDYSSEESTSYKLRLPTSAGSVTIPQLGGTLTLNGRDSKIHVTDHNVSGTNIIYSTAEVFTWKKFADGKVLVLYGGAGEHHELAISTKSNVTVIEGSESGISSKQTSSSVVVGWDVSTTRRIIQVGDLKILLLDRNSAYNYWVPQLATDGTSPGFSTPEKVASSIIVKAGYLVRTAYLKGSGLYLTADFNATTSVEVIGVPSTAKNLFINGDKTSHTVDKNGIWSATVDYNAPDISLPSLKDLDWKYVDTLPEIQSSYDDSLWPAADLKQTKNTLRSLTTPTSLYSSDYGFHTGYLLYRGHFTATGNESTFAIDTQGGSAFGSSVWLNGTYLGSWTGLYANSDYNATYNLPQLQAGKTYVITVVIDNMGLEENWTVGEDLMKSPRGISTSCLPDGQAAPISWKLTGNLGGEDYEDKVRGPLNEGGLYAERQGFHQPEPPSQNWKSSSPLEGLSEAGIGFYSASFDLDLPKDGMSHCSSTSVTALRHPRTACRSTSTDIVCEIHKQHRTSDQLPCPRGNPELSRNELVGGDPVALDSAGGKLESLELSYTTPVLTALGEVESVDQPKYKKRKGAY

[8] = Percentage inhibition of Beta-galactosidase from Aspergillus oryzae at 1 mM
[9] = target: T4, Beta-galactosidase (Bos taurus) (UniProt Q58D55); experiment: Percentage inhibition of Beta-galactosidase from Bovine liver at 1 mM concentration
T4 sequence (whole entry): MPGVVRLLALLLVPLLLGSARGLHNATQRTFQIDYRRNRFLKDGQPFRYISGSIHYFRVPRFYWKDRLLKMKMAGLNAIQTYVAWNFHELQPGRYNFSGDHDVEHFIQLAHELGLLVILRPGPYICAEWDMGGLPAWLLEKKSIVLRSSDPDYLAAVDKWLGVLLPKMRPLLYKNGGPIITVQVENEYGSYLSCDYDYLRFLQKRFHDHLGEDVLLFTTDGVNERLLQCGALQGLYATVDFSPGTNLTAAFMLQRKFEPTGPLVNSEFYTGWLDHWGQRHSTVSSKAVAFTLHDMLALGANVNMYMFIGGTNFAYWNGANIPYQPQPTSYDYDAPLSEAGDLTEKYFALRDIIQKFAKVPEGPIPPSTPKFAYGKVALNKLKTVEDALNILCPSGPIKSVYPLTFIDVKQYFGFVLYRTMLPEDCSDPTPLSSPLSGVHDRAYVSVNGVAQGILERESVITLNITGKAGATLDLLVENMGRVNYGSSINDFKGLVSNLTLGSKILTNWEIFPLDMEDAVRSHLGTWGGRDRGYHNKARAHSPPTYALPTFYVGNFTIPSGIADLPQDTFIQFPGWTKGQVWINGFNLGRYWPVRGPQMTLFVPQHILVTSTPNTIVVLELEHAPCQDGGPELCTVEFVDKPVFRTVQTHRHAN

[10] = Inhibitory activity towards Beta-galactosidase from Aspergillus oryzae
[11] = target: Glucoamylase (Aspergillus niger) (UniProt P69328); experiment: Percentage inhibition of Alpha-glucosidase from Aspergillus niger (amyloglucosidase) at 1 mM
Chain of Glucoamylase (Aspergillus niger) (P69328 whole entry): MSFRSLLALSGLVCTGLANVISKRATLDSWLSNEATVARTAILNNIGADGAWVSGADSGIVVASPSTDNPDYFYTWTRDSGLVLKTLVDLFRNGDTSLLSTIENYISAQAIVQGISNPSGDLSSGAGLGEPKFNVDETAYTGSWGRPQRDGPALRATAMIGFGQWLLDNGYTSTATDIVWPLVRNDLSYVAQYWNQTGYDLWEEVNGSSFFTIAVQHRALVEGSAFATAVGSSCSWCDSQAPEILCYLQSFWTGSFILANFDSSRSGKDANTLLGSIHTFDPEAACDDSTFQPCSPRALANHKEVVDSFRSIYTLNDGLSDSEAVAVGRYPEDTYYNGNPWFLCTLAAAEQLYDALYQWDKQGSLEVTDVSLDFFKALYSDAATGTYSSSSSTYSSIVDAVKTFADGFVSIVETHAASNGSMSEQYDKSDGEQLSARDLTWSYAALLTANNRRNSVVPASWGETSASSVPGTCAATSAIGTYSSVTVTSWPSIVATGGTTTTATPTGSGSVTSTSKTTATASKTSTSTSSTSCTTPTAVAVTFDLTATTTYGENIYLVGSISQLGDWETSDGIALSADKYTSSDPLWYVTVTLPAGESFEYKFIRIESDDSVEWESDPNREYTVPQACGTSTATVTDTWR

Saccharomyces cerevisiae [12] = experiment: Percentage inhibition of Alpha-glucosidase from Yeast (maltase) at 1 mM
Beta-glucosidase A = Beta-glucosidase A (Caldicellulosiruptor saccharolyticus, UniProt P10482); experiment: Inhibitory activity towards Beta-Glucosidase from Caldocellum saccharol.
Chain of Beta-glucosidase A (P10482 whole entry): as the sequence (P10482 whole entry) above

[13] = system: Alpha-mannosidase (Prunus dulcis); experiment: Percentage inhibition of Alpha-mannosidase from Almond at 1 mM
[14] = target: Beta-glucosidase A (Caldicellulosiruptor saccharolyticus) (UniProt P10482); experiment: Percentage inhibition of Beta-Glucosidase from Caldocellum saccharol. at 1 mM
[15] = Percentage inhibition of Beta-galactosidase from Aspergillus oryzae at 1 mM; No inhibition
Beta-galactosidase [16] = target: T5, Beta-galactosidase (Bos taurus, UniProt Q58D55); experiment: Inhibitory activity towards Beta-galactosidase from Bovine liver
T5 sequence (Q58D55 whole entry): T4 sequence (whole entry)

[17] = target: T1, Glucoamylase 1 (Rhizopus oryzae); experiment: Percentage inhibition of Alpha-glucosidase from Rhizopus mold (amyloglucosidase) at 1 mM concentration; No inhibition; details: Rhizopus arrhizus
[18] = target: Glucoamylase (Aspergillus niger) (UniProt P69328); experiment: Percentage inhibition of Alpha-glucosidase from Aspergillus niger (amyloglucosidase) at 1 mM; No inhibition
Beta-galactosidase [19] = target: T6, Beta-galactosidase (Aspergillus niger, UniProt P29853); experiment: Inhibitory activity towards Beta-galactosidase from Aspergillus niger
T6 sequence (P29853 whole entry): T3 sequence (whole entry)

[20] = target: T2, Alpha-glucosidase (Oryza sativa Japonica Group); experiment: Percentage inhibition of Alpha-glucosidase from Rice (maltase) at 1 mM
[21] = target: T4, Beta-galactosidase (Bos taurus); experiment: Percentage inhibition of Beta-galactosidase from Bovine liver at 1 mM; No inhibition
[22] = Percentage inhibition of Beta-galactosidase from Jack bean at 1 mM concentration; details: Canavalia ensiformis

inhibition [1] [%]	inhibition [2]	inhibition (Saccharomyces cerevisiae [3])	inhibition (Saccharomyces cerevisiae [4]) [%]	inhibition [5] [%]	inhibition [7] [%]	inhibition [8] [%]	inhibition [9] [%]	IC50 [10] [µM]	inhibition [11] [%]	inhibition (Saccharomyces cerevisiae [12]) [%]	inhibition [13] [%]	inhibition [14] [%]	inhibition [17]	inhibition [18]	SMILES	also measured
47	inactive	inactive	32	41	39	53	25	790	24	–	–	–	–	–	O[C@@H]1CNC[C@@H]1O	inhibition [6]: inactive
–	inactive	–	46	25	29	–	84	–	–	28	48	72	inactive	inactive	CC(NCC1NCC(O)C1O)C(O)(c1ccccc1)c1ccccc1 (stereo not given)	IC50 (Beta-glucosidase A): 320 µM; inhibition [15]: inactive; IC50 (Beta-galactosidase [16]): 140 µM; Ki (Beta-galactosidase [16]): 21 µM
40	inactive	inactive	28	48	91	80	32	75	21	–	–	90	–	–	OC(O)CC1NCC(O)C1O (stereo not given)	IC50 (Beta-galactosidase [19]): 140 µM; Ki (Beta-galactosidase [19]): 200 µM; Ki [10]: 75 µM
–	–	–	–	92	24	60	–	–	–	84	51	93	inactive	inactive	NCC1NCC(O)C1O (stereo not given)	inhibition [20]: 98%; inhibition [21]: inactive; inhibition [22]: 76%
